In patent US20110212968A1, “PHENETHYLAMIDE DERIVATIVES AND THEIR HETEROCYCLIC ANALOGUES” (priority 2008, published 2011):

How the values were obtained:
human orexin-2 receptor = biological target: T1, human orexin-2 receptor (Homo sapiens, UniProt O43614); experiment: Intracellular calcium measurement (FLIPR Tetra), orexin receptor antagonistic activity, OX2; assay type: cell-based; details: CHO cells expressing human orexin-2 receptor, 3 nM orexin-A, conditions B
T1 construct: expressed in transfected cells; host or cells: CHO (Chinese hamster ovary) cells, kept under G418 selection
T1 sequence (O43614 1-444): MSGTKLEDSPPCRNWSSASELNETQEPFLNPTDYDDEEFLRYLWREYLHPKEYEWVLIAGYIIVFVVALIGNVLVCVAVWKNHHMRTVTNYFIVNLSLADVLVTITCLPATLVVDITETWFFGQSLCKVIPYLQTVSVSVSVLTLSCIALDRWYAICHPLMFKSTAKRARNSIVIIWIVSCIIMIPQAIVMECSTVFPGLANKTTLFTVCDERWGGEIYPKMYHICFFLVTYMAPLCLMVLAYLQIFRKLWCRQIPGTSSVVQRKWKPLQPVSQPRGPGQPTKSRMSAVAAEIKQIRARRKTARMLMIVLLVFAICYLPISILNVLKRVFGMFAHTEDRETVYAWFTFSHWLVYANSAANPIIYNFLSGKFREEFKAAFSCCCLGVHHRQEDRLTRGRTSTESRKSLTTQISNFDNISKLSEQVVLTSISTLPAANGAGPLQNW
Protocol: (§1) The orexin receptor antagonistic activity of the compounds of formula (I) is determined in accordance with one of the following experimental methods.
(§2) Chinese hamster ovary (CHO) cells expressing the human orexin-1 receptor and the human orexin-2 receptor, respectively, are grown in culture medium (Ham F-12 with L-Glutamine) containing 300 μg/ml G418, 100 U/ml penicillin, 100 μg/ml streptomycin and 10% heat inactivated fetal calf serum (FCS). The cells are seeded at 20,000 cells/well into 384-well black clear bottom sterile plates (Greiner). The seeded plates are incubated overnight at 37° C. in 5% CO2.
(§3) Human orexin-A as an agonist is prepared as 1 mM stock solution in MeOH:water (1:1), diluted in HBSS containing 0.1% bovine serum albumin (BSA), NaHCO3: 0.375 g/l and 20 mM HEPES for use in the assay at a final concentration of 3 nM. Antagonists are prepared as 10 mM stock solution in DMSO, then diluted in 384-well plates, first in DMSO, then in HBSS containing 0.1% bovine serum albumin (BSA), NaHCO3: 0.375 g/l and 20 mM HEPES.
(§4) On the day of the assay, 50 μl of staining buffer (HBSS containing 1% FCS, 20 mM HEPES, NaHCO3: 0.375 g/l, 5 mM probenecid (Sigma) and 3 μM of the fluorescent calcium indicator fluo-4 AM (1 mM stock solution in DMSO, containing 10% pluronic) is added to each well.
(§5) The 384-well cell-plates are incubated for 50 min at 37° C. in 5% CO2 followed by equilibration at RT for 30-120 min before measurement.
(§6) Within the Fluorescent Imaging Plate Reader (FLIPR Tetra, Molecular Devices), antagonists are added to the plate in a volume of 10 μl/well, incubated for 10 min and finally 10 μl/well of agonist is added. Fluorescence is measured for each well at 1 second intervals, and the height of each fluorescence peak is compared to the height of the fluorescence peak induced by 3 nM orexin-A with vehicle in place of antagonist. For each antagonist, the IC50 value (the concentration of compound needed to inhibit 50% of the agonistic response) is determined and may be normalized using the obtained IC50 value of a on-plate reference compound (normalized values in Table 1 are indicated by an asterisk *). With the FLIPR Tetra, two different conditions (conditions A and conditions B) were used, differing in adjustment of pipetting speed and cell splitting regime. The calculated IC50 values of the compounds may fluctuate depending on the daily cellular assay performance. Fluctuations of this kind are known to those skilled in the art.

human orexin-1 receptor = biological target: T2, human orexin-1 receptor (Homo sapiens, UniProt O43613); experiment: Intracellular calcium measurement (FLIPR Tetra), orexin receptor antagonistic activity, OX1; assay type: cell-based; details: CHO cells expressing human orexin-1 receptor, 3 nM orexin-A, conditions B
T2 construct: expressed in transfected cells; host or cells: CHO (Chinese hamster ovary) cells, kept under G418 selection
T2 sequence (O43613 1-425): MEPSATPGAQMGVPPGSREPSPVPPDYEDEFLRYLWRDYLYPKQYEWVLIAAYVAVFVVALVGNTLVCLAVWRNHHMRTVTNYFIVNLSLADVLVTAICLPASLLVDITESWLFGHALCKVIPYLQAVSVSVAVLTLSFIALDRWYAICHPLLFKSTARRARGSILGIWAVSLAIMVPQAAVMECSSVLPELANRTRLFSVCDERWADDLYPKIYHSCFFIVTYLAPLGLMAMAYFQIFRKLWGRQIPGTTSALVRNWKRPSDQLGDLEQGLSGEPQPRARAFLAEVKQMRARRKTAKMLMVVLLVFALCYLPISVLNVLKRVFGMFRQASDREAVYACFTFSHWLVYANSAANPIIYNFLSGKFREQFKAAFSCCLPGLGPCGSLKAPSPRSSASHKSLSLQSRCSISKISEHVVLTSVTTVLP
Protocol: as §1, §2, §3, §4, §5, §6

[1] = normalized (*) using IC50 of on-plate reference compound

SMILES	IC50 (human orexin-2 receptor) [nM]	IC50 (human orexin-1 receptor) [nM]	IC50 (human orexin-2 receptor; [1]) [nM]	IC50 (human orexin-1 receptor; [1]) [nM]
COCCN(CCc1ccc(OC)c(OC)c1)C(=O)c1nc(C)sc1-c1cccc(F)c1 [Example 127, 5-(3-Fluoro-phenyl)-2-methyl-thiazole-4-carboxylic acid [2-(3,4-dimethoxy-phenyl)-ethyl]-(2-methoxy-ethyl)-amide]	16	1120	–	–
COCCN(CCc1ccc(OC)c(OC)c1)C(=O)c1nc(N)sc1-c1cccc(C)c1 [Example 128, 2-Amino-5-m-tolyl-thiazole-4-carboxylic acid [2-(3,4-dimethoxy-phenyl)-ethyl]-(2-methoxy-ethyl)-amide]	4	71	–	–
COCCN(CCc1ccc(OC)c(OC)c1)C(=O)c1nc(C)sc1-c1ccc(C)c(C)c1 [Example 129, 5-(3,4-Dimethyl-phenyl)-2-methyl-thiazole-4-carboxylic acid [2-(3,4-dimethoxy-phenyl)-ethyl]-(2-methoxy-ethyl)-amide]	5	40	–	–
COc1ccc(CCN(CCN(C)C)C(=O)c2nc(N)sc2-c2cccc(C)c2)cc1OC [Example 130, 2-Amino-5-m-tolyl-thiazole-4-carboxylic acid [2-(3,4-dimethoxy-phenyl)-ethyl]-(2-dimethylamino-ethyl)-amide]	279	> 10000	–	–
COc1ccc(CCN(CC(N)=O)C(=O)c2nc(C)sc2-c2cccc(F)c2)cc1OC [Example 131, 5-(3-Fluoro-phenyl)-2-methyl-thiazole-4-carboxylic acid carbamoylmethyl-[2-(3,4-dimethoxy-phenyl)-ethyl]-amide]	49	> 10000	–	–
COc1ccc(CCN(CC(=O)N(C)C)C(=O)c2nc(N)sc2-c2cccc(C)c2)cc1OC [Example 135, 2-Amino-5-m-tolyl-thiazole-4-carboxylic acid [2-(3,4-dimethoxy-phenyl)-ethyl]-dimethylcarbamoylmethyl-amide]	145	> 10000	–	–
Cc1cccc(-c2sc(N)nc2C(=O)N(CCc2ccc3c(c2)OC(F)(F)O3)CC2CC2)c1 [Example 157, 2-Amino-5-m-tolyl-thiazole-4-carboxylic acid cyclopropylmethyl-[2-(2,2-difluoro-benzo[1,3]dioxol-5-yl)-ethyl]-amide]	745	8510	–	–
COc1ccc(CCN(CC2CC2)C(=O)c2nc(N)sc2-c2cccc(C)c2)cc1SC [Example 161, 2-Amino-5-m-tolyl-thiazole-4-carboxylic acid cyclopropylmethyl-[2-(4-methoxy-3-methylsulfanyl-phenyl)-ethyl]-amide]	6	10	–	–
COc1ccc(CCN(CC2CC2)C(=O)c2nc(N)sc2-c2cccc(C)c2)cc1Br [Example 163, 2-Amino-5-m-tolyl-thiazole-4-carboxylic acid [2-(3-bromo-4-methoxy-phenyl)-ethyl]-cyclopropylmethyl-amide]	18	81	–	–
COc1ccc(CCN(CC2CC2)C(=O)c2nc(N)sc2-c2cccc(C)c2)cc1OC(F)F [Example 165, 2-Amino-5-m-tolyl-thiazole-4-carboxylic acid cyclopropylmethyl-[2-(3-difluoromethoxy-4-methoxy-phenyl)-ethyl]-amide]	–	–	18	35
Cc1cccc(-c2sc(N)nc2C(=O)N(CCc2ccc3ccccc3c2)CC2CC2)c1 [Example 167, 2-Amino-5-m-tolyl-thiazole-4-carboxylic acid cyclopropylmethyl-(2-naphthalen-2-yl-ethyl)-amide]	45	171	–	–
CCC(Cc1ccc(OC)c(OC)c1)N(CC1CC1)C(=O)c1nc(N)sc1-c1cccc(C)c1 (stereo not drawn) [Example 169, 2-Amino-5-m-tolyl-thiazole-4-carboxylic acid cyclopropylmethyl-[1-(3,4-dimethoxy-benzyl)-propyl]-amide]	27	25	–	–
COc1cc(CCN(CC2CC2)C(=O)c2nc(N)sc2-c2cccc(C)c2)cc(OC)c1OC(C)C [Example 173, 2-Amino-5-m-tolyl-thiazole-4-carboxylic acid cyclopropylmethyl-[2-(4-isopropoxy-3,5-dimethoxy-phenyl)-ethyl]-amide]	12	147	–	–
Cc1cccc(-c2sc(N)nc2C(=O)N(CCc2csc(N)n2)CC2CC2)c1 [Example 177, 2-Amino-5-m-tolyl-thiazole-4-carboxylic acid [2-(2-amino-thiazol-4-yl)-ethyl]-cyclopropylmethyl-amide]	954	> 10000	–	–
CCc1nc(I)cn1CCN(CC1CC1)C(=O)c1nc(N)sc1-c1cccc(C)c1 [Example 178, 2-Amino-5-m-tolyl-thiazole-4-carboxylic acid cyclopropylmethyl-[2-(2-ethyl-4-iodo-imidazol-1-yl)-ethyl]-amide]	943	739	–	–
Cc1nc(C(=O)N(CCc2ccccc2Cl)CC2CC2)c(-c2ccc(C)c(C)c2)s1 [Example 180, 5-(3,4-Dimethyl-phenyl)-2-methyl-thiazole-4-carboxylic acid [2-(2-chloro-phenyl)-ethyl]-cyclopropylmethyl-amide]	240	4360	–	–
Cc1nc(C(=O)N(CCc2ccc(C(F)(F)F)cc2)CC2CC2)c(-c2ccc(C)c(C)c2)s1 [Example 192, 5-(3,4-Dimethyl-phenyl)-2-methyl-thiazole-4-carboxylic acid cyclopropylmethyl-[2-(4-trifluoromethyl-phenyl)-ethyl]-amide]	719	> 10000	–	–
Cc1nc(C(=O)N(CCc2ccc3c(c2)OCCO3)CC2CC2)c(-c2ccc(C)c(C)c2)s1 [Example 198, 5-(3,4-Dimethyl-phenyl)-2-methyl-thiazole-4-carboxylic acid cyclopropylmethyl-[2-(2,3-dihydro-benzo[1,4]dioxin-6-yl)-ethyl]-amide]	65	1070	–	–
CCOc1ccc(CCN(CC2CC2)C(=O)c2nc(C)sc2-c2ccc(C)c(C)c2)cc1OC [Example 199, 5-(3,4-Dimethyl-phenyl)-2-methyl-thiazole-4-carboxylic acid cyclopropylmethyl-[2-(4-ethoxy-3-methoxy-phenyl)-ethyl]-amide]	9	404	–	–
COc1ccc(CCN(CC2CC2)C(=O)c2nc(C)sc2-c2ccc(C)c(C)c2)cc1SC [Example 201, 5-(3,4-Dimethyl-phenyl)-2-methyl-thiazole-4-carboxylic acid cyclopropylmethyl-[2-(4-methoxy-3-methylsulfanyl-phenyl)-ethyl]-amide]	15	21	–	–
COc1ccc(CCN(CC2CC2)C(=O)c2nc(C)sc2-c2ccc(C)c(C)c2)cc1C [Example 202, 5-(3,4-Dimethyl-phenyl)-2-methyl-thiazole-4-carboxylic acid cyclopropylmethyl-[2-(4-methoxy-3-methyl-phenyl)-ethyl]-amide]	22	447	–	–
